“Also recorded” adds a separate entry of the source.
Assay: Unspecified test of effectiveness of AII fragments
Settings: test not specified

Row | Substance | effectiveness (tested, effective or not)
1 | His-Pro-Phe (HPF) [AII(6-8)] | not to be effective
2 | Tyr-Ile-His-Pro-Phe (YIHPF; printed: Tyr-Ile-His-Pro-Phe) [AII(4-8)] | not to be effective; also recorded: ineffective in repeated tests
